Test results reported in US10568876B2, “Tetrahydroisoquinoline derivatives useful as inhibitors of diacylglyceride O-acyltransferase 2” (Merck Sharp & Dohme Corp., priority 2014, dated 2020).

biological target: hDGAT2 (Homo sapiens (Human), UniProt Q96PD7); assay: DGAT2 Enzymatic Activity Assay; type: biochemical; settings: hDGAT2 Sf-9 membrane prep; 25 μM diolein, 10 μM oleoyl-CoA; triolein product by LC/MS/MS; read-out: IC50 values for inhibition of DGAT2
How it was run: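 Membranes from Sf-9 cells expressing untagged hDGAT2 (10 ng/μL) incubated at room temperature with 25 μM diolein and 10 μM oleoyl-CoA in 100 mM Tris pH 7.0, 20 mM MgCl2, 5% ethanol. Triolein product quantified by LC/MS/MS against spiked internal standard; IC50 from 4-parameter sigmoidal fit.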

Chain of hDGAT2 (Q96PD7 whole entry): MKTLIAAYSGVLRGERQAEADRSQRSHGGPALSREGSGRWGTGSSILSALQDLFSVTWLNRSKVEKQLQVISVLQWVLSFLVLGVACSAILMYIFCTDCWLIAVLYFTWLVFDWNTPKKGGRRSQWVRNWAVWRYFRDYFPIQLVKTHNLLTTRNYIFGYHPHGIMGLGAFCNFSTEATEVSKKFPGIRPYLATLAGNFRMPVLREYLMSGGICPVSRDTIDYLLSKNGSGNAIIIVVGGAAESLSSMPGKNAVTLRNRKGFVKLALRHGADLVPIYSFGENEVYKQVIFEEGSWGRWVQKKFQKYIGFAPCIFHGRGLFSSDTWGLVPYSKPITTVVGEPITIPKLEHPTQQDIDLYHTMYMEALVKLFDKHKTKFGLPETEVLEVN

| SMILES | IC50 [nM] |
| --- | --- |
| COC(=O)c1cccc(-c2ccc(CNC(=O)C3CC3c3ccccc3)c3c2CCN(C(=O)c2c[nH]nc2C2CC2)C3)c1 (centres unmarked) [Example 121, methyl 3-(2-(3-cyclopropyl-1H-pyrazole-4-carbonyl)-8-((2-phenylcyclopropanecarboxamido)methyl)-1,2,3,4-tetrahydroisoquinolin-5-yl)benzoate] | 632 |
| COC(=O)c1cccc(-c2ccc(CNC(=O)C3CC3c3ccccc3)c3c2CCN(C(=O)c2cnoc2C(C)C)C3)c1 (centres unmarked) [Example 122, methyl 3-(2-(5-isopropylisoxazole-4-carbonyl)-8-((2-phenylcyclopropanecarboxamido)methyl)-1,2,3,4-tetrahydroisoquinolin-5-yl)benzoate] | 5500 |
| COC(=O)c1cccc(-c2ccc(CNC(=O)C3CC3c3ccccc3)c3c2CCN(C(=O)C2(C(F)(F)F)CC2)C3)c1 (centres unmarked) [Example 123, methyl 3-(8-((2-phenylcyclopropanecarboxamido)methyl)-2-(1-(trifluoromethyl)cyclopropanecarbonyl)-1,2,3,4-tetrahydroisoquinolin-5-yl)benzoate] | 1320 |
| COC(=O)c1cccc(-c2ccc(CNC(=O)C3CC3c3ccccc3)c3c2CCN(C(=O)c2cccc(-n4cccc4)c2)C3)c1 (centres unmarked) [Example 124, methyl 3-(2-(3-(1H-pyrrol-1-yl)benzoyl)-8-((2-phenylcyclopropanecarboxamido)methyl)-1,2,3,4-tetrahydroisoquinolin-5-yl)benzoate] | 5490 |
| COC(=O)c1cccc(-c2ccc(CNC(=O)C3CC3c3ccccc3)c3c2CCN(C(=O)CC2CC2)C3)c1 (centres unmarked) [Example 125, methyl 3-(2-(2-cyclopropylacetyl)-8-((2-phenylcyclopropanecarboxamido)methyl)-1,2,3,4-tetrahydroisoquinolin-5-yl)benzoate] | 209 |
| COCCC(=O)N1CCc2c(-c3cccc(C(=O)OC)c3)ccc(CNC(=O)C3CC3c3ccccc3)c2C1 (centres unmarked) [Example 126, methyl 3-(2-(3-methoxypropanoyl)-8-((2-phenylcyclopropanecarboxamido)methyl)-1,2,3,4-tetrahydroisoquinolin-5-yl)benzoate] | 1770 |
| COC(=O)c1cccc(-c2ccc(CNC(=O)C3CC3c3ccccc3)c3c2CCN(C(=O)CCC(F)(F)F)C3)c1 (centres unmarked) [Example 127, methyl 3-(8-((2-phenylcyclopropanecarboxamido)methyl)-2-(4,4,4-trifluorobutanoyl)-1,2,3,4-tetrahydroisoquinolin-5-yl)benzoate] | 1220 |
| COC(=O)c1cccc(-c2ccc(CNC(=O)C3CC3c3ccccc3)c3c2CCN(C(=O)C2(C#N)CC2)C3)c1 (centres unmarked) [Example 128, methyl 3-(2-(1-cyanocyclopropanecarbonyl)-8-((2-phenylcyclopropanecarboxamido)methyl)-1,2,3,4-tetrahydroisoquinolin-5-yl)benzoate] | 1590 |
| COC(=O)c1cccc(-c2ccc(CNC(=O)C3CC3c3ccccc3)c3c2CCN(C(=O)CC(F)(F)F)C3)c1 (centres unmarked) [Example 129, methyl 3-(8-((2-phenylcyclopropanecarboxamido)methyl)-2-(3,3,3-trifluoropropanoyl)-1,2,3,4-tetrahydroisoquinolin-5-yl)benzoate] | 1820 |
| COC(=O)c1cccc(-c2ccc(CNC(=O)C3CC3c3ccccc3)c3c2CCN(C(=O)C(C)C)C3)c1 (centres unmarked) [Example 130, methyl 3-(2-isobutyryl-8-((2-phenylcyclopropanecarboxamido)methyl)-1,2,3,4-tetrahydroisoquinolin-5-yl)benzoate] | 281 |
| COC(=O)c1cccc(-c2ccc(CNC(=O)C3CC3c3ccccc3)c3c2CCN(C(=O)C2CC2C)C3)c1 (centres unmarked) [Example 131, methyl 3-(2-(2-methylcyclopropanecarbonyl)-8-((2-phenylcyclopropanecarboxamido)methyl)-1,2,3,4-tetrahydroisoquinolin-5-yl)benzoate] | 360 |
| COC(=O)c1cccc(-c2ccc(CNC(=O)C3CC3c3ccccc3)c3c2CCN(C(=O)C2(C)CC2)C3)c1 (centres unmarked) [Example 132, methyl 3-(2-(1-methylcyclopropanecarbonyl)-8-((2-phenylcyclopropanecarboxamido)methyl)-1,2,3,4-tetrahydroisoquinolin-5-yl)benzoate] | 522 |
| COC(=O)c1cccc(-c2ccc(CNC(=O)C3CC3c3ccccc3)c3c2CCN(C(=O)c2ccncc2)C3)c1 (centres unmarked) [Example 133, methyl 3-(2-isonicotinoyl-8-((2-phenylcyclopropanecarboxamido)methyl)-1,2,3,4-tetrahydroisoquinolin-5-yl)benzoate] | 2510 |
| COC(=O)c1cccc(-c2ccc(CNC(=O)C3CC3c3ccccc3)c3c2CCN(C(=O)c2cccnc2)C3)c1 (centres unmarked) [Example 134, methyl 3-(2-nicotinoyl-8-((2-phenylcyclopropanecarboxamido)methyl)-1,2,3,4-tetrahydroisoquinolin-5-yl)benzoate] | 3560 |
| CCOCC(=O)N1CCc2c(-c3cccc(C(=O)OC)c3)ccc(CNC(=O)C3CC3c3ccccc3)c2C1 (centres unmarked) [Example 136, methyl 3-(2-(2-ethoxyacetyl)-8-((2-phenylcyclopropanecarboxamido)methyl)-1,2,3,4-tetrahydroisoquinolin-5-yl)benzoate] | 2170 |
| COC(=O)c1cccc(-c2ccc(CNC(=O)C3CC3c3ccccc3)c3c2CCN(C(=O)C2CCC(C)CC2)C3)c1 (centres unmarked) [Example 137, methyl 3-(2-(4-methylcyclohexanecarbonyl)-8-((2-phenylcyclopropanecarboxamido)methyl)-1,2,3,4-tetrahydroisoquinolin-5-yl)benzoate] | 3340 |
| COC(=O)c1cccc(-c2ccc(CNC(=O)C3CC3c3ccccc3)c3c2CCN(C(=O)c2ccccc2)C3)c1 (centres unmarked) [Example 138, methyl 3-(2-benzoyl-8-((2-phenylcyclopropanecarboxamido)methyl)-1,2,3,4-tetrahydroisoquinolin-5-yl)benzoate] | 176 |
| COC(=O)c1cccc(-c2ccc(CNC(=O)C3CC3c3ccccc3)c3c2CCN(C(=O)c2ccccc2F)C3)c1 (centres unmarked) [Example 139, methyl 3-(2-(2-fluorobenzoyl)-8-((2-phenylcyclopropanecarboxamido)methyl)-1,2,3,4-tetrahydroisoquinolin-5-yl)benzoate] | 219 |
| COC(=O)c1cccc(-c2ccc(CNC(=O)C3CC3c3ccccc3)c3c2CCN(C(=O)c2cccc(F)c2)C3)c1 (centres unmarked) [Example 140, methyl 3-(2-(3-fluorobenzoyl)-8-((2-phenylcyclopropanecarboxamido)methyl)-1,2,3,4-tetrahydroisoquinolin-5-yl)benzoate] | 1530 |
| COC(=O)c1cccc(-c2ccc(CNC(=O)C3CC3c3ccccc3)c3c2CCN(C(=O)c2ccc(F)cc2)C3)c1 (centres unmarked) [Example 141, methyl 3-(2-(4-fluorobenzoyl)-8-((2-phenylcyclopropanecarboxamido)methyl)-1,2,3,4-tetrahydroisoquinolin-5-yl)benzoate] | 279 |
